Assay results as given in paper PMC10338423, “Synthesis and preclinical evaluation of a novel fluorine-18 labeled small-molecule PET radiotracer for imaging of CXCR3 receptor in mouse models of atherosclerosis” (EJNMMI Research, 2023).

What was measured:
[1] = Biodistribution study in normal C57BL/6 mice; assay type: in vivo, mouse
Description: Biodistribution studies were also performed to discover the drug distribution within normal mice. 17-week-old male and female C57BL/6 mice were purchased to match the age of the imaging study group. [^18F]1 was intravenously injected into these mice (N = 4/time point), then they were sacrificed at 10, 30, and 60 min after the injection. Their major organs, including the brain, blood, lung, liver, stomach, heart, spleen, kidney, muscle, bone, large intestine, small intestine, aorta, liquinal lymph nodes (LN), interscapular BAT, and tail, were harvested. Their radioactivity was counted by an automated γ-counter. The biodistribution was calculated as an average of the percent injected dose per gram tissue (%ID/g tissue) where the counted radioactivity of each organ was divided by the weight of each tissue and the total radioactivity that circulated in the mouse body at the time of the euthanasia.
Seventeen-week-old male and female C57BL/6 mice were purchased to match the age of PET imaging mice. They were anesthetized in the anesthesia chamber using 3% isoflurane in oxygen and received 0.74–1.11 MBq of [^18F]1 in 100 μL of 5–10% EtOH in saline containing 0.5% sodium ascorbate. The injected mice were returned to their cages and free until the time of the study. At 10, 30, and 60 min after the [^18F]1 administration, each mouse (N = 4/time point) was anesthetized again and euthanized by cervical dislocation followed by cardiac puncture to take a blood sample. Then, the following organs were harvested: the brain, blood, heart, liver, lung, stomach, large intestine, small intestine, spleen, kidney, bone, muscle, liquinal LN, interscapular BAT, and tail. The radioactivity of each organ was counted by a PerkinElmer Wallac 1480 Wizard^3 Gamma Counter (Waltham, MA). The whole radioactivity that went into the circulation of the mouse was calculated by subtracting the residual radioactivity in the tail from the injected radioactivity. Therefore, the biodistribution was calculated as an average of the percent injected dose per gram of tissue (%ID/g tissue) by dividing the measured radioactivity by the whole radioactivity that actually went into the body and the weight of the tissue.

[2] = Stability of formulated radiotracer (HPLC); assay type: physicochemical; details: formulated in 10% EtOH/0.9% saline containing 0.5% sodium ascorbate
Description: The addition of AcOH and the high temperature was necessary for an improved RCC. A usual C18 SPE workup followed by semi-preparative reverse phase HPLC purification afforded [^18F]1 in RCY of 13 ± 2% (n = 10) at the end of synthesis (EOS). The semi-preparative HPLC chromatograms of [^18F]1 is shown in Additional file 1: Fig. S1(a). The HPLC purification was performed using a Phenomenex Gemini C18 Semi-preparative column (5 µm, 250 × 10 mm) equipped with UV (254 nm) and radioactivity detectors by eluting with an isocratic mobile phase composed of 65% MeCN, 5% MeOH, 30% water, and 0.1% triethylamine (NEt3) at a flow rate of 5 mL/min. The radioactive [^18F]1 was collected between 16 and 17 min and was well-separated from the rest of the UV and radioactivity peaks. After the purification, the collected product was formulated in 10% EtOH/0.9% saline containing 0.5% sodium ascorbate. The total radiosynthesis time was 100 min at the EOS. The final reformulated aliquot was further characterized by HPLC analysis using a Phenomenex Gemini C18 analytical column (5 µm, 250 × 4.6 mm) equipped with UV and radioactivity detectors by eluting with the same HPLC solvent at a flow rate of 1 mL/min. The radioactive peak was eluted between 15 and 17 min. […]

[3] = 10 min p.i., i.v., C57BL/6 mice

## CC[C@H]1CN(c2ncc(-c3nnco3)cc2Cl)CCN1C1CCN(Cc2ccc(Cl)cc2[18F])CC1 [[^18F]1]
[1]; [3]
  uptake in BAT: 15 % ID/g
  uptake in aorta: 13 % ID/g
  uptake in heart: 12 % ID/g
  uptake in kidney: 22 % ID/g
  uptake in liver: 12 % ID/g
  uptake in lung: 27 % ID/g
[1]; 30 min p.i.
  uptake remaining relative to 10 min p.i. (lung, kidney, BAT, aorta, heart): ~ 60%
[1]; 30 min p.i., i.v., C57BL/6 mice
  uptake in liver: 22 % ID/g
[1]; 60 min p.i.
  uptake remaining relative to 10 min p.i. (lung, kidney, BAT, aorta, heart): ~ 40%
[2]
  time radiotracer is stable: more than 10 h
